The inhibition is the percentage by which the read-out fell short of the control. A high value points to strong suppression.

Here are results for 15 compounds from patent US12122763B2, “Substituted piperidines for androgen receptor degradation” (UBIX THERAPEUTICS, INC., priority 2020, dated 2024).

In this assay the target is T1, Androgen Receptor (AR) protein (Homo sapiens, UniProt P10275, T878A).
T1 construct: endogenous in cells; host or cells: LNCaP
Kind of assay: Androgen Receptor (AR) protein degradation assay in LNCaP cells, western blotting. The assay is classed as cell-based. Particulars: 20 h; for inhibition at 0.01 µM: 0.01 μM compound; for inhibition at 0.1 µM: 0.1 μM compound; for inhibition at 1 µM: 1 μM compound; for inhibition at 10 µM: 10 μM compound. A digest of the protocol: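 LNCaP prostate cancer cells were cultured 3 days, then treated with compound for 20 h. Lysates in 1% SDS buffer were normalised by BCA, and 8 μg protein was run on 4–12% Bis-Tris gels. AR was immunoblotted with chemiluminescence, using GAPDH/β-actin as loading controls.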
In general terms: A western blot detects proteins with antibodies after separation by electrophoresis.

T1 sequence (P10275 whole entry T878A): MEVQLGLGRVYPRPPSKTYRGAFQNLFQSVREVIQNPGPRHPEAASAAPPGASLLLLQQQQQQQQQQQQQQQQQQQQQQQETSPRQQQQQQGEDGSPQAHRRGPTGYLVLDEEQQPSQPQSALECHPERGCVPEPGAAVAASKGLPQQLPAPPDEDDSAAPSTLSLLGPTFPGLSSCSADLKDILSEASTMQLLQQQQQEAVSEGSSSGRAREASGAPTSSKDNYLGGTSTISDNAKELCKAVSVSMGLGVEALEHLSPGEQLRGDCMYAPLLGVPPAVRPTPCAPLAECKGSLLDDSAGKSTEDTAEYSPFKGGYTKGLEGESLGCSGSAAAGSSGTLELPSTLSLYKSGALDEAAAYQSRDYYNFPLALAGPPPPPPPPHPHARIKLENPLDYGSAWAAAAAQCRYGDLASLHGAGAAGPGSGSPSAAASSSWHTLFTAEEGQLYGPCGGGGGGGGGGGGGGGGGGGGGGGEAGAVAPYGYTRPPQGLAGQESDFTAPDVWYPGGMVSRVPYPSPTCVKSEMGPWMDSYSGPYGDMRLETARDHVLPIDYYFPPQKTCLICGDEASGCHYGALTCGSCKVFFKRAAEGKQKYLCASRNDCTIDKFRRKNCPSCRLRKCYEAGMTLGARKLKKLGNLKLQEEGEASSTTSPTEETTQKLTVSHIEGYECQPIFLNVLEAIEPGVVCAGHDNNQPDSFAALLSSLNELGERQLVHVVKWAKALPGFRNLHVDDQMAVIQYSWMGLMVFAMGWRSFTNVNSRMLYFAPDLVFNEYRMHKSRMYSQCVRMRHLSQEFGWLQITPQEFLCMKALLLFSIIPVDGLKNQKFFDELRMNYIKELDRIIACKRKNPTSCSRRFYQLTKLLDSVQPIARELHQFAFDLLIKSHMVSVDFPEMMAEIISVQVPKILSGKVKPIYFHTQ
T1 sequence (Q96SW2 whole entry partner): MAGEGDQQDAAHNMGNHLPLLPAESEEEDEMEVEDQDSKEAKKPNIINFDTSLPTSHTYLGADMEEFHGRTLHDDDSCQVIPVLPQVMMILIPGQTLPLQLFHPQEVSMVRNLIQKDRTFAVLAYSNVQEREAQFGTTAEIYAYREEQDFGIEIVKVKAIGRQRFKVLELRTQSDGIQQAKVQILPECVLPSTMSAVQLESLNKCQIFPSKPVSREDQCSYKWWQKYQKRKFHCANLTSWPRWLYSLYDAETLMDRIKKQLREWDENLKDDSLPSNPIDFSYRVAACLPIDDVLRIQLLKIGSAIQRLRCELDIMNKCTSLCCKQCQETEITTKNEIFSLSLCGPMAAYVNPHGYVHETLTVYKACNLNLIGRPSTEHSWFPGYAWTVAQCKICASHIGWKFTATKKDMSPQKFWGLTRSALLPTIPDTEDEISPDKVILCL

For the compound `COc1ccc(C(=O)N2CC3(CCN(CC4CCN(c5ccc(NC(=O)C6CCN(c7ccc(C#N)c(C(F)(F)F)c7)CC6)nc5)CC4)CC3)C2)cc1N1CCC(=O)NC1=O` [Example 65, 1-(4-cyano-3-(trifluoromethyl)phenyl)-N-(5-(4-((2-(3-(2,4-dioxotetrahydropyrimidin-1(2H)-yl)-4-methoxybenzoyl)-2,7-diazaspiro[3.5]nonan-7-yl)methyl)piperidin-1-yl)pyridin-2-yl)piperidine-4-carboxamide], testing at 0.01 µM gave an inhibition of 55%, testing at 0.1 µM gave an inhibition of 80%, testing at 1 µM gave an inhibition of 82% and 10 µM produced 63% inhibition.

As for `N#Cc1ccc(N2CCC(C(=O)Nc3ccc(N4CCC(CN5CC6(C5)CN(c5ccc7c(c5)C(=O)N(C5CCC(=O)NC5=O)C7=O)C6)CC4)cn3)CC2)cc1C(F)(F)F` (stereo not shown) [Example 66, 1-(4-cyano-3-(trifluoromethyl)phenyl)-N-(5-(4-((6-(2-(2,6-dioxopiperidin-3-yl)-1,3-dioxoisoindolin-5-yl)-2,6-diazaspiro[3.3]heptan-2-yl)methyl)piperidin-1-yl)pyridin-2-yl)piperidine-4-carboxamide], testing at 0.01 µM gave an inhibition of 75.5%, the inhibition at 0.1 µM was found to be 95.5%, 1 µM produced 97% inhibition and the inhibition at 10 µM amounted to 94%.

The compound `N#Cc1ccc(N2CCC(C(=O)Nc3ccc(N4CCC(CN5CC6(C5)CN(c5ccc7c(c5)C(=O)N(C5CCC(=O)NC5=O)C7=O)C6)CC4)cn3)CC2)cc1Cl` (stereo not shown) [Example 67, 1-(3-chloro-4-cyanophenyl)-N-(5-(4-((6-(2-(2,6-dioxopiperidin-3-yl)-1,3-dioxoisoindolin-5-yl)-2,6-diazaspiro[3.3]heptan-2-yl)methyl)piperidin-1-yl)pyridin-2-yl)piperidine-4-carboxamide] registered an inhibition at 0.01 µM of 46%, an inhibition at 0.1 µM of 90%, an inhibition at 1 µM of 88% and an inhibition at 10 µM of 86%.

`N#Cc1ccc(N2CCC(C(=O)Nc3ccc(N4CCC(CN5CCC6(CC5)CCN(c5ccc7c(c5)C(=O)N(C5CCC(=O)NC5=O)C7=O)CC6)CC4)cn3)CC2)cc1C(F)(F)F` (stereo not shown) [Example 68, 1-(4-cyano-3-(trifluoromethyl)phenyl)-N-(5-(4-((9-(2-(2,6-dioxopiperidin-3-yl)-1,3-dioxoisoindolin-5-yl)-3,9-diazaspiro[5.5]undecan-3-yl)methyl)piperidin-1-yl)pyridin-2-yl)piperidine-4-carboxamide] displayed an inhibition at 0.01 µM of 66%, an inhibition at 0.1 µM of 91%, an inhibition at 1 µM of 90% and an inhibition at 10 µM of 85%.

The compound `N#Cc1ccc(N2CCC(C(=O)Nc3ccc(N4CCC(CN5CCC6(CC5)CCN(c5ccc7c(c5)C(=O)N(C5CCC(=O)NC5=O)C7=O)CC6)CC4)cn3)CC2)cc1Cl` (stereo not shown) [Example 69, 1-(3-chloro-4-cyanophenyl)-N-(5-(4-((9-(2-(2,6-dioxopiperidin-3-yl)-1,3-dioxoisoindolin-5-yl)-3,9-diazaspiro[5.5]undecan-3-yl)methyl)piperidin-1-yl)pyridin-2-yl)piperidine-4-carboxamide] showed an inhibition at 0.01 µM of 40%, an inhibition at 0.1 µM of 83%, an inhibition at 1 µM of 85% and an inhibition at 10 µM of 82%.

With `N#Cc1ccc(N2CCC(C(=O)Nc3ccc(N4CCC(CN5CCN(C6CCN(c7ccc8c(c7)C(=O)N(C7CCC(=O)NC7=O)C8=O)CC6)CC5)CC4)cn3)CC2)cc1C(F)(F)F` (stereo not shown) [Example 70, 1-(4-cyano-3-(trifluoromethyl)phenyl)-N-(5-(4-((4-(1-(2-(2,6-dioxopiperidin-3-yl)-1,3-dioxoisoindolin-5-yl)piperidin-4-yl)piperazin-1-yl)methyl)piperidin-1-yl)pyridin-2-yl)piperidine-4-carboxamide], the inhibition at 0.01 µM was determined as 85%, the inhibition at 0.1 µM stood at 99%, the inhibition at 1 µM was 99% and the inhibition at 10 µM came out at 97%.

`N#Cc1ccc(N2CCC(C(=O)Nc3ccc(N4CCC(CN5CCN(C6CCN(c7ccc8c(c7)C(=O)N(C7CCC(=O)NC7=O)C8=O)CC6)CC5)CC4)cn3)CC2)cc1Cl` (stereo not shown) [Example 71, 1-(3-chloro-4-cyanophenyl)-N-(5-(4-((4-(1-(2-(2,6-dioxopiperidin-3-yl)-1,3-dioxoisoindolin-5-yl)piperidin-4-yl)piperazin-1-yl)methyl)piperidin-1-yl)pyridin-2-yl)piperidine-4-carboxamide]: the inhibition at 0.01 µM stood at 75%, the inhibition at 0.1 µM came to 97%, 1 µM produced 98% inhibition and 10 µM produced 98% inhibition.

On to `N#Cc1ccc(N2CCC(F)(C(=O)Nc3ccc(N4CCC(CN5CCN(C6CCN(c7ccc8c(c7)C(=O)N(C7CCC(=O)NC7=O)C8=O)CC6)CC5)CC4)cn3)CC2)cc1C(F)(F)F` (stereo not shown) [Example 72, 1-(4-cyano-3-(trifluoromethyl)phenyl)-N-(5-(4-((4-(1-(2-(2,6-dioxopiperidin-3-yl)-1,3-dioxoisoindolin-5-yl)piperidin-4-yl)piperazin-1-yl)methyl)piperidin-1-yl)pyridin-2-yl)-4-fluoropiperidine-4-carboxamide], for which 0.01 µM produced 59% inhibition, the inhibition at 0.1 µM was found to be 94% and the inhibition at 1 µM came out at 97%.

For `N#Cc1ncc(N2CCC(C(=O)Nc3ccc(N4CCC(CN5CCN(C6CCN(c7ccc8c(c7)C(=O)N(C7CCC(=O)NC7=O)C8=O)CC6)CC5)CC4)cn3)CC2)cc1C(F)(F)F` (stereo not shown) [Example 73, 1-(6-cyano-5-(trifluoromethyl)pyridin-3-yl)-N-(5-(4-((4-(1-(2-(2,6-dioxopiperidin-3-yl)-1,3-dioxoisoindolin-5-yl)piperidin-4-yl)piperazin-1-yl)methyl)piperidin-1-yl)pyridin-2-yl)piperidine-4-carboxamide], 0.01 µM produced 55% inhibition, 0.1 µM produced 88% inhibition and testing at 1 µM gave an inhibition of 92%.

Regarding `N#Cc1ncc(N2CCC(F)(C(=O)Nc3ccc(N4CCC(CN5CCN(C6CCN(c7ccc8c(c7)C(=O)N(C7CCC(=O)NC7=O)C8=O)CC6)CC5)CC4)cn3)CC2)cc1C(F)(F)F` (stereo not shown) [Example 74, 1-(6-cyano-5-(trifluoromethyl)pyridin-3-yl)-N-(5-(4-((4-(1-(2-(2,6-dioxopiperidin-3-yl)-1,3-dioxoisoindolin-5-yl)piperidin-4-yl)piperazin-1-yl)methyl)piperidin-1-yl)pyridin-2-yl)-4-fluoropiperidine-4-carboxamide], the inhibition at 0.01 µM worked out at 20%, the inhibition at 0.1 µM stood at 66% and the inhibition at 1 µM was 83%.

In turn, `N#Cc1ccc(N2CCC(C(=O)Nc3ccc(N4CCC(CN5CCN(C6CCN(c7ccc8c(n7)CN(C7CCC(=O)NC7=O)C8=O)CC6)CC5)CC4)cn3)CC2)cc1C(F)(F)F` (stereo not shown) [Example 75, 1-(4-cyano-3-(trifluoromethyl)phenyl)-N-(5-(4-((4-(1-(6-(2,6-dioxopiperidin-3-yl)-5-oxo-6,7-dihydro-5H-pyrrolo[3,4-b]pyridin-2-yl)piperidin-4-yl)piperazin-1-yl)methyl)piperidin-1-yl)pyridin-2-yl)piperidine-4-carboxamide] returned an inhibition at 0.01 µM of 82%, an inhibition at 0.1 µM of 97% and an inhibition at 1 µM of 90%.

`N#Cc1ccc(N2CCC(C(=O)Nc3ccc(N4CCC(CN5CCN(C6CCN(c7cccc8c7C(=O)N(C7CCC(=O)NC7=O)C8=O)CC6)CC5)CC4)cn3)CC2)cc1C(F)(F)F` (stereo not shown) [Example 76, 1-(4-cyano-3-(trifluoromethyl)phenyl)-N-(5-(4-((4-(1-(2-(2,6-dioxopiperidin-3-yl)-1,3-dioxoisoindolin-4-yl)piperidin-4-yl)piperazin-1-yl)methyl)piperidin-1-yl)pyridin-2-yl)piperidine-4-carboxamide] returned an inhibition at 0.01 µM of 36%, an inhibition at 0.1 µM of 85% and an inhibition at 1 µM of 88%.

`N#Cc1ccc(N2CCC(C(=O)Nc3ccc(N4CCC(CN5CC(N6CCN(c7ccc8c(c7)C(=O)N(C7CCC(=O)NC7=O)C8=O)CC6)C5)CC4)cn3)CC2)cc1C(F)(F)F` (stereo not shown) [Example 77, 1-(4-cyano-3-(trifluoromethyl)phenyl)-N-(5-(4-((3-(4-(2-(2,6-dioxopiperidin-3-yl)-1,3-dioxoisoindolin-5-yl)piperazin-1-yl)azetidin-1-yl)methyl)piperidin-1-yl)pyridin-2-yl)piperidine-4-carboxamide] displayed an inhibition at 0.01 µM of 46%, an inhibition at 0.1 µM of 96% and an inhibition at 1 µM of 97%.

The compound `N#Cc1ccc(N2CCC(C(=O)Nc3ccc(N4CCC(CN5CC(N6CCN(c7ccc8c(n7)CN(C7CCC(=O)NC7=O)C8=O)CC6)C5)CC4)cn3)CC2)cc1C(F)(F)F` (stereo not shown) [Example 78, 1-(4-cyano-3-(trifluoromethyl)phenyl)-N-(5-(4-((3-(4-(6-(2,6-dioxopiperidin-3-yl)-5-oxo-6,7-dihydro-5H-pyrrolo[3,4-b]pyridin-2-yl)piperazin-1-yl)azetidin-1-yl)methyl)piperidin-1-yl)pyridin-2-yl)piperidine-4-carboxamide] displayed an inhibition at 0.01 µM of 49%, an inhibition at 0.1 µM of 88% and an inhibition at 1 µM of 71%.

For `N#Cc1ccc(N2CCC(C(=O)Nc3ccc(N4CCC(CN5CC(CN6CCN(c7ccc8c(c7)C(=O)N(C7CCC(=O)NC7=O)C8=O)CC6)C5)CC4)cn3)CC2)cc1C(F)(F)F` (stereo not shown) [Example 79, 1-(4-cyano-3-(trifluoromethyl)phenyl)-N-(5-(4-((3-((4-(2-(2,6-dioxopiperidin-3-yl)-1,3-dioxoisoindolin-5-yl)piperazin-1-yl)methyl)azetidin-1-yl)methyl)piperidin-1-yl)pyridin-2-yl)piperidine-4-carboxamide], the inhibition at 0.01 µM was determined as 31%, the inhibition at 0.1 µM was determined as 94% and the inhibition at 1 µM came to 95%.
